# Source: ChEMBL document CHEMBL1147587, “Synthesis of 7'-[123I]iodo-D-luciferin for in vivo studies of firefly luciferase gene expression” (Bioorg Med Chem Lett, 2004)
# Test system: Lampyridae
# Description: Michaelis-Menten constant for binding affinity towards firefly luciferase
smiles,measurement,value
O=C(O)[C@H]1CSC(c2nc3ccc(O)c(I)c3s2)=N1,Km,4.28 µM
